Assay results as given in patent publication US9555038B2, “Heterocycle-substituted tetracyclic compounds and methods of use thereof for the treatment of viral diseases” (Merck Sharp & Dohme Corp., priority 2013, dated 2017).
Like-named read-outs stand apart in the source and are kept apart here.

How the values were obtained:
[1] = tested on: HCV replicon 2B; experiment: Cell-based HCV Replicon Assay A, replicon 2B
Procedure, shortened: (§1)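 HCV replicon RNA levels are measured by multiplexed real-time RT-PCR, with cyclophilin as internal control, after 3 days of compound exposure. Compounds are tested in 10 serial dilutions starting between 333.3 nM and 1.667 nM, with 5% FBS in the medium.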

[2] = tested on: HCV replicon 1A; experiment: Cell-based HCV Replicon Assay A, replicon 1A
Procedure, shortened: as §1

[3] = tested on: HCV replicon 1AY93H; experiment: Cell-based HCV Replicon Assay A, replicon 1AY93H
Procedure, shortened: as §1

[4] = tested on: HCV replicon 1B; experiment: Cell-based HCV Replicon Assay B, replicon 1B
Description: In an alternate assay (“Replicon Assay B”), 1000 cells were seeded per well in a 384-well collagen coated black plate from Greiner bio-one (Cat #781946) in 5% FBS. Inhibitors of this invention were added at 24 h post-seeding, and the plates were incubated for 3 days. Cells were subsequently lysed with Qiagen lysis buffer (Cat #1062731) to extract the RNA. HCV replicon RNA level was measured by real-time PCR using the RNA-to-CT kit from Applied Biosystem (Cat #4392656) and genotype-specific primers and probes. The amplicon was located within NS5B. The sequence of the PCR primers are as follows: 5B.2F, ATGGACAGGCGCCCTGA (SEQ. ID NO. 1); 5B.2R, […] (SEQ. ID NO. 2); the probe sequence was FAM-labeled CACGCCATGCGCTGCGG (SEQ. ID NO. 3). To detect genotype 1A the primer 1A F, TGCGGAACCGGTGAGTACA and 1A R, […] were used; the probe sequence was FAM-[…].
The real-time RT-PCR reactions were run on ABI PRISM 7900HT or Viia7 Sequence Detection System using the following program: 48° C. for 30 minutes, 95° C. for 10 minutes, 40 cycles of 95° C. for 15 sec, 60° C. for 1 minutes. The 50% effective concentration (EC50) was the drug concentration necessary to achieve an increase in the cycle threshold (CT) of 1 over the projected baseline CT.
Data was obtained for various compounds of the present invention using the methods described in the Example above, and is presented in the table immediately below. Data for replicons 1A, 1AY93H and 2B were obtained using Replicon Assay A and data for replicons 1AQ30D and 1B were obtained using Replicon Assay B.

[5] = read-out: 1A Y93H IC50, replicon 1AY93H
[6] = Hepatitis C virus, read-out: 1A Y93H IC50 (nM), replicon 1AY93H
[7] = replicon 1AY93H, read-out: 1A Y93H IC50

Row | SMILES | IC50 ([1]; read-out: 2B IC50, replicon 2B) | IC50 ([2]; Hepatitis C virus) | IC50 [3, 5] | IC50 ([4]; Hepatitis C virus) | IC50 [2] | IC50 [4] | IC50 [3, 6] | IC50 ([1]; Hepatitis C virus, read-out: 2B IC50 (nM), replicon 2B) | IC50 ([1]; replicon 2B, read-out: 2B IC50) | IC50 [3, 7]
1 | COC(=O)NC(C(=O)N1[C@@H]2C[C@@H]2C[C@H]1c1ncc(-c2ccc3c(c2)cc2n3C(c3cnc(C4CC4)s3)Oc3cc(-c4cnc([C@@H]5CCCN5C(=O)[C@@H](NC(=O)OC)C(C)C)[nH]4)cc(C)c3-2)[nH]1)C1C[C@@H](C)O[C@@H](C)C1 (single isomer, unassigned) [Compound 216] | 0.086 nM | 2.4 pM | 0.292 nM | 4 pM |  |  |  |  |  | 
2 | COC(=O)N[C@H](C(=O)N1CCC[C@H]1c1ncc(-c2cc(F)c3c(c2)OC(c2cnc(C(C)(C)C)s2)n2c-3cc3cc(-c4cnc([C@@H]5CCCN5C(=O)[C@@H](NC(=O)OC)C(C)C)[nH]4)ccc32)[nH]1)C(C)C (single isomer, unassigned) [Compound 303] | 0.942 nM |  | 0.0475 nM |  | 2.6 pM | 3 pM |  |  |  | 
3 | COC(=O)NC(C(=O)N1[C@@H]2C[C@@H]2C[C@H]1c1ncc(-c2ccc3c(c2)cc2n3C(c3cnc(C4CC4)s3)Oc3cc(-c4cnc([C@@H]5CCCN5C(=O)[C@@H](NC(=O)OC)C(C)C)[nH]4)cc(F)c3-2)[nH]1)C1CCOC(C)(C)C1 (single isomer, unassigned) [Compound 313] | 0.122 nM | 3.2 pM |  | 45 pM |  |  | 0.231 nM |  |  | 
4 | COC(=O)NC(C(=O)N1CCC[C@H]1c1ncc(-c2ccc3c(c2)cc2n3C(c3cnc(C(C)(C)C)s3)Oc3cc(-c4cnc([C@@H]5CCCN5C(=O)[C@@H](NC(=O)OC)C(C)C)[nH]4)cc(F)c3-2)[nH]1)C1CCOC(C)(C)C1 (single isomer, unassigned) [Compound 315] | 0.004 nM |  | 0.0028 nM | 2 pM | 2.7 pM |  |  |  |  | 
5 | COC(=O)NC(C(=O)N1CCC[C@H]1c1ncc(-c2ccc3c(c2)cc2n3C(c3cnc(C(C)(C)C)s3)Oc3cc(-c4cnc([C@@H]5CCCN5C(=O)[C@@H](NC(=O)OC)C(C)C)[nH]4)cc(F)c3-2)[nH]1)C1CCOC(C)(C)C1 (single isomer, unassigned) [Compound 316] | 0.012 nM |  | 0.0162 nM |  | 1.1 pM | 4 pM |  |  |  | 
6 | COC(=O)N[C@H](C(=O)N1CCC[C@H]1c1ncc(-c2cc(F)c3c(c2)OC(c2csc(C4CC4)n2)n2c-3cc3cc(-c4cnc([C@@H]5CCCN5C(=O)[C@@H](NC(=O)OC)C(C)C)[nH]4)ccc32)[nH]1)C(C)C (single isomer, unassigned) [Compound 432] | 4 nM | 1 pM | 2.6 nM | 1 pM |  |  |  |  |  | 
7 | COC(=O)NC(C(=O)N1CCC[C@H]1c1ncc(-c2ccc3c(c2)cc2n3C(c3sc(C(C)C)nc3C)Oc3cc(-c4cnc([C@@H]5CCCN5C(=O)[C@@H](NC(=O)OC)C(C)C)[nH]4)cc(F)c3-2)[nH]1)C1CCOC(C)(C)C1 (single isomer, unassigned) [Compound 434] |  | 2.3 pM |  | 3.5 pM |  |  | 0.729 nM | 0.293 nM |  | 
8 | COC(=O)NC(C(=O)N1CCC[C@H]1c1ncc(-c2ccc3c(c2)cc2n3C(c3sc(C(C)C)nc3C)Oc3cc(-c4cnc([C@@H]5CCCN5C(=O)[C@@H](NC(=O)OC)C(C)C)[nH]4)cc(F)c3-2)[nH]1)C1CCOC(C)(C)C1 (single isomer, unassigned) [Compound 435] | 0.181 nM |  | 0.618 nM |  | 2.8 pM | 3.8 pM |  |  |  | 
9 | COC(=O)NC(C(=O)N1CCC[C@H]1c1ncc(-c2ccc3c(c2)cc2n3C(c3cnc(C4(C)CC4)s3)Oc3cc(-c4cnc([C@@H]5CCCN5C(=O)[C@@H](NC(=O)OC)C(C)C)[nH]4)cc(F)c3-2)[nH]1)C1CCOC(C)(C)C1 (single isomer, unassigned) [Compound 459] | 0.083 nM |  | 0.296 nM |  | 2.3 pM | 3 pM |  |  |  | 
10 | COC(=O)NC(C(=O)N1CCC[C@H]1c1ncc(-c2ccc3c(c2)cc2n3C(c3cnc(C4(C)CC4)s3)Oc3cc(-c4cnc([C@@H]5CCCN5C(=O)[C@@H](NC(=O)OC)C(C)C)[nH]4)cc(F)c3-2)[nH]1)C1CCOC(C)(C)C1 (single isomer, unassigned) [Compound 460] | 0.138 nM |  | 0.288 nM |  | 2.7 pM | 3.9 pM |  |  |  | 
11 | COC(=O)NC(C(=O)N1CCC[C@H]1c1ncc(-c2ccc3c(c2)cc2n3C(c3cnc(C4(C)CC4)s3)Oc3cc(-c4cnc([C@@H]5CCCN5C(=O)[C@@H](NC(=O)OC)C(C)C)[nH]4)cc(F)c3-2)[nH]1)C1C[C@@H](C)O[C@@H](C)C1 (single isomer, unassigned) [Compound 461] | 0.132 nM | 2.2 pM | 0.32 nM | 3.8 pM |  |  |  |  |  | 
12 | COC(=O)NC(C(=O)N1CCC[C@H]1c1ncc(-c2ccc3c(c2)cc2n3C(c3cnc(C4(C)CCCC4)s3)Oc3cc(-c4cnc([C@@H]5CCCN5C(=O)[C@@H](NC(=O)OC)C(C)C)[nH]4)cc(F)c3-2)[nH]1)C1C[C@@H](C)O[C@@H](C)C1 (single isomer, unassigned) [Compound 470] | 0.106 nM |  | 0.514 nM |  | 2.6 pM | 3.5 pM |  |  |  | 
13 | COC(=O)NC(C(=O)N1[C@@H]2C[C@@H]2C[C@H]1c1ncc(-c2ccc3c(c2)cc2n3C(c3cnc(C4(C)CCCC4)s3)Oc3cc(-c4cnc([C@@H]5CCCN5C(=O)[C@@H](NC(=O)OC)C(C)C)[nH]4)cc(F)c3-2)[nH]1)C1C[C@@H](C)O[C@@H](C)C1 (single isomer, unassigned) [Compound 474] | 0.263 nM |  | 0.269 nM |  | 1.5 pM | 3.6 pM |  |  |  | 
14 | COC(=O)NC(C(=O)N1[C@@H]2C[C@@H]2C[C@H]1c1ncc(-c2ccc3c(c2)cc2n3C(c3cnc(C4(C)CCCC4)s3)Oc3cc(-c4cnc([C@@H]5CCCN5C(=O)[C@@H](NC(=O)OC)C(C)C)[nH]4)cc(F)c3-2)[nH]1)C1CCOC(C)(C)C1 (single isomer, unassigned) [Compound 476] | 0.19 nM |  | 0.316 nM |  | 1.1 pM | 3.5 pM |  |  |  | 
15 | COC(=O)N[C@H](C(=O)N1CCC[C@H]1c1ncc(-c2cc(F)c3c(c2)OC(c2cnc(C4CC4)s2)n2c-3c(C)c3cc(-c4cnc([C@@H]5CCCN5C(=O)[C@@H](NC(=O)OC)C(C)C)[nH]4)ccc32)[nH]1)C(C)C (single isomer, unassigned) [Compound 495] |  |  |  |  | 1.6 pM | 2.5 pM |  |  | 0.184 nM | 0.27 nM
16 | COC(=O)N[C@H](C(=O)N1CCC[C@H]1c1ncc(-c2cc(F)c3c(c2)OC(c2nc4c(s2)CCC4)n2c-3cc3cc(-c4cnc([C@@H]5CCCN5C(=O)[C@@H](NC(=O)OC)C(C)C)[nH]4)ccc32)[nH]1)C(C)C (single isomer, unassigned) [Compound 504] | 1.67 nM | 2.6 pM | 1.67 nM | 2.4 pM |  |  |  |  |  | 
17 | COC(=O)N[C@H](C(=O)N1CCC[C@H]1c1ncc(-c2cc(F)c3c(c2)OC(c2cnc(CC4CC4)s2)n2c-3cc3cc(-c4cnc([C@@H]5CCCN5C(=O)[C@@H](NC(=O)OC)C(C)C)[nH]4)ccc32)[nH]1)C(C)C (single isomer, unassigned) [Compound 509] |  |  |  |  | 2 pM | 2.8 pM |  |  | 0.018 nM | 0.014 nM
18 | COC(=O)N[C@H](C(=O)N1CCC[C@H]1c1ncc(-c2cc(F)c3c(c2)OC(c2cnc(C4(C)CC4)s2)n2c-3cc3cc(-c4cnc([C@@H]5CCCN5C(=O)[C@@H](NC(=O)OC)C(C)C)[nH]4)ccc32)[nH]1)C(C)C (single isomer, unassigned) [Compound 512] | 0.783 nM |  | 0.347 nM |  | 8.5 pM | 3.9 pM |  |  |  | 
